One data set addresses T1, Cathepsin K (Homo sapiens, UniProt P43235).
T1 sequence (P43235 whole entry): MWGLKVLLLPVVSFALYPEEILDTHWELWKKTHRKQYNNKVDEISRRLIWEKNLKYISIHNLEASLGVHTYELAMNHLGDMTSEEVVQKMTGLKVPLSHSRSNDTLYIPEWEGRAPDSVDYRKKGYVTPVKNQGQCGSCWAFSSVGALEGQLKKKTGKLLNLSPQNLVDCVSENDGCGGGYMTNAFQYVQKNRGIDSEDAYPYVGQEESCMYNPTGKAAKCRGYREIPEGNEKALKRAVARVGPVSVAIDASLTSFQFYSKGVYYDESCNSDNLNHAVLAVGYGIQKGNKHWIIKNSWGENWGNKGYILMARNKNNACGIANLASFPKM
Nature of the data set: Inhibition of human cathepsin K.

Data set [1] in a line: Mean residence time in rat at 0.5 mg/kg, iv. The class given is ADME, organism-based. More on the design: dose 0.5 mg/kg, route intravenous. The conditions noted are these: in vivo.
A short description of data set [2]: Clearance in rat at 0.5 mg/kg, iv. The class given is ADME, organism-based. Details: dose 0.5 mg/kg, route intravenous. The note with it: in vivo.
A short description of data set [3]: Volume of distribution in rat at 0.5 mg/kg, iv. The format is ADME, organism-based. More on the design: dose 0.5 mg/kg, route intravenous. The conditions noted are these: in vivo, read-out: Vss.
The target of another data set is Procathepsin L (Homo sapiens, UniProt P07711). Nature of the data set: Inhibition of human cathepsin L.
The target of a further data set is Cathepsin B (Homo sapiens, UniProt P07858). Nature of the data set: Inhibition of human cathepsin B.
For another data set, the target named is Cathepsin S (Homo sapiens, UniProt P25774). Nature of the data set: Inhibition of human cathepsin S.
The subject of another data set is Osteoclast. Nature of the data set: Effect on degradation of bovine bone by rabbit osteoclast. The class given is functional, cell-based. The note with it: Oryctolagus cuniculus.
The target in data set [4] is Cathepsin (L and K) (Homo sapiens) (UniProt P43235+P07711). The data set is described as follows: Selectivity for cathepsin L over cathepsin K. The format is protein assay.
Data set [5] deals with Cathepsin (B and K) (Homo sapiens) (UniProt P43235+P07858). Nature of the data set: Selectivity for cathepsin B over cathepsin K. The class given is protein assay.
Data set [6] addresses Cathepsin (S and K) (Homo sapiens) (UniProt P25774+P43235). Nature of the data set: Selectivity for cathepsin S over cathepsin K. The class given is protein assay.
For data set [7], the system named is Rattus norvegicus. The data set is described as follows: Cmax in rat at 10 mg/kg, po. The class given is ADME, organism-based. More on the design: dose 10 mg/kg, route oral. The note with it: in vivo.
Data set [8] has as its system Rattus norvegicus. The data set is described as follows: Tmax in rat at 10 mg/kg, po. The format is ADME, organism-based. Details: dose 10 mg/kg, route oral. The note with it: in vivo.
The test system of data set [9] is Rattus norvegicus. Nature of the data set: AUC in rat at 10 mg/kg, po. The note with it: in vivo. Details: dose 10 mg/kg, route oral. The format is ADME, organism-based, Plasma.
Data set [10] deals with Rattus norvegicus. The data set is described as follows: Half life in rat at 10 mg/kg, po. The format is ADME, organism-based. The conditions noted are these: in vivo. Details: dose 10 mg/kg, route oral.
Data set [11] can be described thus: Oral bioavailability in rat at 10 mg/kg, po. The conditions noted are these: in vivo. The format is ADME, organism-based.

Cathepsin S, sequence (P25774 whole entry): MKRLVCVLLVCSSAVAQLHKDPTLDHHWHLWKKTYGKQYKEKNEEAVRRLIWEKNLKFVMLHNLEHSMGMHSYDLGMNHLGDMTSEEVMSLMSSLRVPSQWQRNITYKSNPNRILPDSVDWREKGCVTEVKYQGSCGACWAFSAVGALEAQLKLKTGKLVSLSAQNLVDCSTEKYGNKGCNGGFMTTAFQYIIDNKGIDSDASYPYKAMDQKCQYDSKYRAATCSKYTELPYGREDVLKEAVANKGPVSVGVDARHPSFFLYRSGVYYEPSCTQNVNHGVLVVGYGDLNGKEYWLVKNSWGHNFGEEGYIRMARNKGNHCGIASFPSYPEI
Procathepsin L, sequence (P07711 whole entry): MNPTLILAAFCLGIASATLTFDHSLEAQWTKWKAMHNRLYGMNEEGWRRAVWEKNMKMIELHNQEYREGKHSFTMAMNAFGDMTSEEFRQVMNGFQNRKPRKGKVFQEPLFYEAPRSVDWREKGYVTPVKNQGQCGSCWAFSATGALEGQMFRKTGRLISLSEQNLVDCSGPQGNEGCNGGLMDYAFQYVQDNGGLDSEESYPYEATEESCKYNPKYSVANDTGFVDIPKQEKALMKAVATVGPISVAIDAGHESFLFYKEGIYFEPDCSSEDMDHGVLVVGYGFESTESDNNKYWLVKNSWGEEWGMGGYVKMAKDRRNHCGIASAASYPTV

In general, Ki refers to a measure of affinity in units of concentration, obtained from inhibition or displacement. A low value points to tighter binding. For orientation: MRT means a mean duration of stay, worked out from the concentration-time curve. As a reminder, the clearance is the rate of elimination divided by the concentration. Low readings indicate inefficient removal, high ones efficient removal. What is called IC50 is the concentration that gives 50% inhibition. Read a high IC50 as weaker potency in that assay. On to `CC(C)CC(C(=O)NCC#N)c1cccc(-c2ccc(-c3csc(N4CCNCC4)n3)cc2)c1` (racemic), for which the inhibitory constant (Ki) is 3.5 nM at Cathepsin K, 2500 nM on Procathepsin L, 12000 nM at Cathepsin B and 9500 nM on Cathepsin S. The compound further gave a mean residence time MRT in data set [1] of 1.77 h. For the same compound, the clearance in [2] came out at 114 mL/min/kg. Moreover, the Vd in data set [3] was 12 L/kg. Moreover, the midpoint of inhibition in the data set on Osteoclast, the IC50, lay at 12 nM. Moreover, the Selectivity ratio turned out to be 714 in data set [4], 3430 in [5] and 2710 in data set [6].

For the compound `CC(C)C[C@@H](C(=O)NCC#N)c1cccc(-c2cccc(-c3csc(CN4CCNCC4)n3)c2)c1`, the inhibitory constant (Ki) amounted to 4.8 nM on Cathepsin K, 680 nM at Procathepsin L, 51000 nM at Cathepsin B and 7400 nM on Cathepsin S. The compound also gave an MRT in [1] of 2.33 h. In [2], the clearance was found to be 65 mL/min/kg. Further, in data set [3], the Vd is 9.1 L/kg. Also, the IC50 in the data set on Osteoclast came to 43 nM. Also, the Selectivity ratio is 141 in [4], 10600 in [5] and 1540 in data set [6].

In the case of `CC(C)C[C@@H](C(=O)NCC#N)c1cccc(-c2ccc(N3CCNCC3)cc2)c1`, the Ki was 8 nM on Cathepsin K, 4640 nM on Procathepsin L, 3840 nM on Cathepsin B and 1690 nM at Cathepsin S. The same compound gave an MRT in data set [1] of 2.58 h. In data set [2], this compound returned a clearance of 98 mL/min/kg. Also, the Vd in data set [3] is 14.8 L/kg. The compound further showed an IC50 in the data set with Osteoclast of 95 nM. In addition, the Selectivity ratio turned out to be 580 in data set [4], 481 in data set [5] and 212 in data set [6].

Take `CC(C)C[C@@H](C(=O)NCC#N)c1cccc(-c2cccc(-c3csc(N4CCC(N(C)C)C4)n3)c2)c1` (some centres undefined): the Ki at Cathepsin K is 3 nM; at Procathepsin L, 540 nM; on Cathepsin B it was 51000 nM; at Cathepsin S, 3600 nM. In the data set on Osteoclast, this compound came in with an IC50 of 172 nM. Besides, the Selectivity ratio in data set [4] stood at 180; in [5], 17000; in data set [6], 1200.

For `CC(C)CC(C(=O)NCC#N)c1cccc(-c2cccc(-c3csc(N4CCN(C)CC4)n3)c2)c1` (racemic), the inhibition constant Ki was determined as 1.3 nM at Cathepsin K, 390 nM at Procathepsin L, 22000 nM on Cathepsin B and 1800 nM at Cathepsin S. Also, the MRT in data set [1] is 0.9 h. Further, in data set [2], the clearance turned out to be 32 mL/min/kg. Also, the Vd in data set [3] was 1.7 L/kg. This compound also had an IC50 in the data set with Osteoclast of 59 nM. The Selectivity ratio turned out to be 300 in data set [4], 16900 in [5] and 1380 in [6].

One may read the Cmax as the maximum level reached in the sampled fluid or tissue. As usually defined, the Tmax is the time from dosing to the highest level. For orientation: AUC means the area under the concentration-time curve, a measure of exposure. Low readings indicate less exposure, high ones more exposure. What is called bioavailability is dose-corrected exposure relative to a reference, in per cent. A low value points to poor availability. In the case of `CC(C)CC(C(=O)NCC#N)c1cccc(-c2cccc(-c3csc(N4CCNCC4)n3)c2)c1` (racemic), the Ki at Cathepsin K amounted to 0.8 nM; on Procathepsin L, 190 nM; at Cathepsin B it was 18000 nM; at Cathepsin S, 5600 nM. The compound further gave an MRT in [1] of 2.93 h. This compound also showed a clearance in data set [2] of 25 mL/min/kg. This compound also returned a maximum concentration (Cmax) in the data set on Rattus norvegicus [7] of 1100 nM. Further, the time of peak concentration (Tmax) in the data set with Rattus norvegicus [8] worked out at 3.33 h. The AUC in the data set with Rattus norvegicus [9] was determined as 560 µM·min. In the data set on Rattus norvegicus [10], this compound returned a T1/2 of 3.9 h. Also, in data set [11], the bioavailability stood at 85%. Further, the Vd in data set [3] came out at 4.3 L/kg. The compound further yielded a half-maximal inhibitory concentration (IC50) in the data set on Osteoclast of 349 nM. Moreover, the Selectivity ratio was found to be 237 in data set [4], 22500 in data set [5] and 7000 in data set [6].

Turning to `CC(C)C[C@@H](C(=O)NCC#N)c1cccc(-c2cccc(-c3csc(N4CCN(C(C)(C)C)CC4)n3)c2)c1`, the inhibitory constant (Ki) at Cathepsin K was determined as 1.3 nM; at Procathepsin L it was 360 nM; at Cathepsin B it was 37000 nM; on Cathepsin S, 5600 nM. In data set [1], this compound gave an MRT of 1.82 h. In addition, in data set [2], the clearance came to 60 mL/min/kg. The Vd in data set [3] amounted to 6.6 L/kg. In the data set with Osteoclast, this compound showed a half-inhibitory concentration (IC50) of 28 nM. In addition, the results for the Selectivity ratio in [4], in data set [5] and in data set [6] were 276, 28500 and 4310, respectively.
